# System: OVA-challenged mice
# Assay: Recruitment of CD4+ and CD8+ T cells into BAL fluid (flow cytometry)
# Assay type: in vivo, mouse
# Details: BAL fluid 12 hr after 10% OVA challenge
# Source text: FIGS. 8a and 8b show recruitment of T lymphocytes into airways. FIG. 8a depicts FACS analysis showing recruitment of CD4+ T cells into the BAL fluid of mice 12 hr after aerosol OVA challenge. FIG. 8b depicts FACS analysis showing recruitment of CD8+ T cells into the BAL fluid of mice 12 hr after aerosol OVA challenge. BAL fluid was collected 12 hr after 10% OVA challenge and washed with PBS. The leukocytes present were stained with FITC-conjugated anti-mouse TCR chain and PE-cy5 anti-mouse CD8a or PE rat anti-mouse CD4 after blocking with anti-FcRyantibody. Samples were then analyzed by flow cytometry to assess T lymphocyte recruitment. Data are means±SEM (n=6 in each group). *P<0.05 vs. OVA/asBLT2. For flow cytometric analysis, the cells in the BAL fluid were suspended in 50 μl of PBS containing 0.01% sodium azide and 0.1% BSA. BAL leukocytes were incubated for 30 min with 2.4G2 anti-FcγIII/II receptor (BD PharMingen) and stained for 30 min at 4° C. with FITC-conjugated anti-mouse TCR. chain (BD PharMingen) and PE-cy5 anti-mouse CD8a (BD PharMingen) or PE rat anti-mouse CD4 (BD PharMingen). Cytofluorimetry was performed with a FACS Caiibur™ (Becton Dickinson, Franklin Lakes, N.J.), and the results were analyzed with CellQuest software (Becton-Dickinson).
substance,measurement,value
"antisense BLT2: Antisense BLT2 oligonucleotide 5′-GCTCAGTAGTGTCTCATTCC-3′ (SEQ ID NO: 15) (listed as DNA, chemistry not fully specified)",effect on T cell trafficking into airways,no inhibitory effect
